According to publication PMC6721824, “IGFs Potentiate TAC3-induced SLα Expression via Upregulation of TACR3 Expression in Grass Carp Pituitary Cells” (Cells, 2019):

Columns and labels:
[1] = tested on: SLα mRNA expression in grass carp pituitary cells; assay: SLα mRNA expression (qPCR) in grass carp pituitary cells; format: cell-based, grass carp (Ctenopharyngodon idellus); details: for effect on SLα mRNA expression induced by IGF-I or senktide treatment alone: senktide 1 µM, IGF-I 100 nM; for effect on SLα mRNA expression induced by IGF-I or senktide treatment alone / effect on the synergistic effect on SLα mRNA expression caused by IGF-I and senktide cotreatment: inhibitors 10 µM, 2-APB 100 µM, calmidazolium 1 µM (Figure 5A–C); for effect on the synergistic effect on SLα mRNA expression caused by IGF-I and senktide cotreatment: senktide (1 µM) + IGF-I (100 nM); for SLα mRNA levels, activator alone: static incubation for 24 h, 8Br.cAMP 10 µM, forskolin 1 µM, Dic8 100 µM, TPA 10 µM, A23187 100 nM, BayK8644 100 nM (Figure 5D); for enhancement of the stimulatory effects of TAC3 gene products on SLα mRNA expression: IGF-I/-II cotreatment
Experimental: (§1) Grass carp pituitary cells prepared by the trypsin/DNase digestion method were seeded in 24-well plates at ~2.5 × 10^6 cells/mL/well. On the following day, drug treatment was initiated by replacing the old medium with a testing medium with the appropriate levels of test substances, and the cells were then allowed to incubate at 28 °C for the duration as indicated. After drug treatment, total RNA was extracted from individual wells and reversely transcribed as above. The RT samples obtained were subjected to qPCR using a LightCycler SYBR Green I Kit (Roche, Stockholm, Sweden) with the primers mentioned above. In these studies, serial dilutions of plasmid DNA containing the ORF of SLα (GeneBank no.: EF372074) and TACR3 (GenBank no: JQ254913) cDNA were used as the standards for data calibration. Parallel real-time PCR measurement of β-actin was also conducted in individual experiments to serve as the internal control.
(§2) For real-time PCR of SLα and TACR3 mRNA measurement, standard curves with a dynamic range of ≥10^5 and correlation coefficient of ≥0.95 were used for data calibration with the RotorGene-Q software 1.7 (Qiagen) under unsupervised mode. SLα and TACR3 mRNA data were normalized with the β-actin transcript level and then were transformed as a percentage of the mean value in the control group without drug treatment (as “%Ctrl”). For the calcium bioluminescence signals and raw data obtained from luciferase reporter assays, the luminescence signals or luciferase activity was expressed as “relative luminescence unit (RLU)” registered by the fluorescence plate reader. For individual samples of the luciferase reporter assay, the firefly luciferase activity detected was routinely normalized against Renilla Luciferase activity expressed in the same well and expressed as the luciferase activity ration (as “Luc Ratio”). For receptor binding assay, specific binding of FAM-NKBa was measured in terms of “Arbitrary Fluorescence Unit (AFU)”. The six replicates presented (expressed as Mean ± SEM) were pooled results from two individual experiments prior to statistical analysis; all data were tested for normality of distribution using the Shapiro–Wilk normality test. Then, one-way ANOVA and two-way ANOVA were used to test the significant difference according to different experiment groups. The differences between groups were considered as significant at P < 0.05 (“*”) or highly significant at P < 0.01 (“**”).

[2] = tested on: TACR3 mRNA expression in grass carp pituitary cells; assay: TACR3 mRNA expression (qPCR) in grass carp pituitary cells; format: cell-based, grass carp (Ctenopharyngodon idellus); details: for effect on IGF-I-induced TACR3 mRNA expression: 24 h cotreatment with IGF-I (10 nM), inhibitors 10 µM, wortmannin 1 µM, rapamycin 20 nM; for TACR3 mRNA expression, dose-dependence: 24-h incubation, 0.01–100 nM (Figure 3C); for TACR3 mRNA expression, time course: 100 nM, from 1 h to 24 h (Figure 3B)
Experimental: as §1, §2

[3] = biological target: T1, grass carp TACR3 (Ctenopharyngodon idella, UniProt A0A075BDW2); assay: Fluorescence-based receptor binding assay, displacement of FAM-NKBa tracer; design: species or system grass carp (Ctenopharyngodon idellus); details: HEK-293 cells with stable expression of grass carp TACR3, 30 min pretreatment with competitor, then FAM-NKBa (10 nM) 30 min, 37 °C; bound given in μM; read-out: IC50 for displacing FAM-NKBa binding
T1 sequence (A0A075BDW2 1-395): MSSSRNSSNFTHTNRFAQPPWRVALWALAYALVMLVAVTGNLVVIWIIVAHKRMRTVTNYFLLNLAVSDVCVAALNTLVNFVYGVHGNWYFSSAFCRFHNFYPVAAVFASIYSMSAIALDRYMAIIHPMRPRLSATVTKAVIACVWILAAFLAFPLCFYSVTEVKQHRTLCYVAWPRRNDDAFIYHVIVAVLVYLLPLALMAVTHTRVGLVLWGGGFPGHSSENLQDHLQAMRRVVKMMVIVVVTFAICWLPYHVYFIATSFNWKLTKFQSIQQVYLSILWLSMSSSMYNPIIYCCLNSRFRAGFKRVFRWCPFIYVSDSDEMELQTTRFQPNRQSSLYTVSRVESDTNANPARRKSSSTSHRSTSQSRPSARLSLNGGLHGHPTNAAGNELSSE
Experimental: The cells were then harvested and seeded onto 24-well plates at a density of 0.1 million/well and incubated at 37 °C under 5% CO2 for 24 h prior to the experiments. On the day of the experiments, the culture medium was aspirated and replaced with 500 μL serum-free DMEM with or without appropriated levels of unlabeled competitors. Cells were then allowed to incubate for 30 min at 37 °C under 5% CO2 and saturated humidity. FAM Carboxyfluorescein-labeled NKBa, namely FAM-NKBa, was used as a tracer for receptor binding experiments, and a 50-μL volume of FAM-NKBa (10 nM) was added into individual wells. After further incubation for 30 min at 37 °C, the cells were washed twice and with 500 μl PBS each to remove unbound ligands. […] The supernatant from individual wells was then collected in a 96-wells black view plate, and fluorescence signals indicative of FAM-NKBa binding were registered using FluoStar OPTIMA with excitation at 490 nm and emission at 520 nm.
For receptor binding assay, specific binding of FAM-NKBa was measured in terms of “Arbitrary Fluorescence Unit (AFU)”. The six replicates presented (expressed as Mean ± SEM) were pooled results from two individual experiments prior to statistical analysis; all data were tested for normality of distribution using the Shapiro–Wilk normality test. […]

Compound: NCCOB(c1ccccc1)c1ccccc1 [2-APB]
- effect on SLα mRNA expression induced by IGF-I or senktide treatment alone [1]: attenuated
- effect on the synergistic effect on SLα mRNA expression caused by IGF-I and senktide cotreatment [1]: notably suppressed

Compound: CN([C@@H](Cc1ccc(OS(=O)(=O)c2cccc3cnccc23)cc1)C(=O)N1CCN(c2ccccc2)CC1)S(=O)(=O)c1cccc2cnccc12 [KN62]
- effect on SLα mRNA expression induced by IGF-I or senktide treatment alone [1]: attenuated
- effect on the synergistic effect on SLα mRNA expression caused by IGF-I and senktide cotreatment [1]: notably suppressed

Compound: CN(C)CCCn1cc(C2=C(c3c[nH]c4ccccc34)C(=O)NC2=O)c2ccccc21 [GF109203X]
- effect on SLα mRNA expression induced by IGF-I or senktide treatment alone [1]: attenuated
- effect on the synergistic effect on SLα mRNA expression caused by IGF-I and senktide cotreatment [1]: notably suppressed

Compound: COc1ccc(Cl)cc1NC(=O)Nc1cc(C)nc2ccccc12 [PQ401]
- effect on IGF-I-induced TACR3 mRNA expression [2]: totally abolished

Compound: insulin: Human insulin, purchased from Sigma
- TACR3 mRNA expression, dose-dependence [2]: not mimicked

Compound: COC[C@H]1OC(=O)c2coc3c2[C@@]1(C)C1=C(C3=O)[C@@H]2CCC(=O)[C@@]2(C)C[C@H]1OC(C)=O [wortmannin]
- effect on IGF-I-induced TACR3 mRNA expression [2]: notably suppressed

Compound: Clc1ccc(C(c2ccc(Cl)cc2)n2cc[n+](CC(OCc3ccc(Cl)cc3Cl)c3ccc(Cl)cc3Cl)c2)cc1 (stereo not drawn) [calmidazolium]
- effect on SLα mRNA expression induced by IGF-I or senktide treatment alone [1]: attenuated
- effect on the synergistic effect on SLα mRNA expression caused by IGF-I and senktide cotreatment [1]: notably suppressed

Compound: COc1ccc2c(c1)CC[C@@H]1[C@@H]2CC[C@]2(C)[C@@H](NCCCCCCN3C(=O)C=CC3=O)CC[C@@H]12 [U73122]
- effect on SLα mRNA expression induced by IGF-I or senktide treatment alone [1]: attenuated
- effect on the synergistic effect on SLα mRNA expression caused by IGF-I and senktide cotreatment [1]: notably suppressed

Compound: Nc1ncnc2c1nc(Br)n2[C@@H]1O[C@@H]2COP(=O)(O)O[C@H]2[C@H]1O [8Br.cAMP]
- SLα mRNA levels, activator alone [1]: effective in elevating SLα mRNA levels

Compound: CCCCCCCCCCCCCC(=O)O[C@@H]1[C@@H](C)[C@@]2(O)[C@@H](C=C(CO)C[C@]3(O)C(=O)C(C)=C[C@@H]23)[C@@H]2C(C)(C)[C@]12OC(C)=O [TPA]
- SLα mRNA levels, activator alone [1]: effective in elevating SLα mRNA levels

Compound: CO[C@H]1C[C@@H]2CC[C@@H](C)[C@@](O)(O2)C(=O)C(=O)N2CCCC[C@H]2C(=O)O[C@H]([C@H](C)C[C@@H]2CC[C@@H](O)[C@H](OC)C2)CC(=O)[C@H](C)/C=C(\C)[C@@H](O)[C@@H](OC)C(=O)[C@H](C)C[C@H](C)/C=C/C=C/C=C/1C [rapamycin]
- effect on IGF-I-induced TACR3 mRNA expression [2]: notably suppressed

Compound: COc1cc([C@@H]2c3cc4c(cc3[C@H](O)[C@H]3COC(=O)[C@@H]23)OCO4)cc(OC)c1OC [PPP]
- effect on IGF-I-induced TACR3 mRNA expression [2]: partially inhibited

Compound: COC(=O)C1=C(C)NC(C)=C(C(=O)OC)C1c1ccccc1[N+](=O)[O-] [nifedipine]
- effect on SLα mRNA expression induced by IGF-I or senktide treatment alone [1]: attenuated
- effect on the synergistic effect on SLα mRNA expression caused by IGF-I and senktide cotreatment [1]: notably suppressed

Compound: CCCCCCCC(=O)OCC(CO)OC(=O)CCCCCCC (stereo not drawn) [Dic8]
- SLα mRNA levels, activator alone [1]: effective in elevating SLα mRNA levels

Compound: CNc1ccc2oc(C[C@H]3O[C@@]4(CC[C@H]3C)O[C@H]([C@H](C)C(=O)c3ccc[nH]3)[C@H](C)C[C@H]4C)nc2c1C(=O)O [A23187]
- SLα mRNA levels, activator alone [1]: effective in elevating SLα mRNA levels

Compound: IGF-II: Human insulin-like growth factor II, purchased from Sigma
- TACR3 mRNA expression, time course [2]: significantly stimulate TACR3 mRNA expression
- TACR3 mRNA expression, dose-dependence [2]: trigger TACR3 mRNA expression in a concentration-related fashion
- enhancement of the stimulatory effects of TAC3 gene products on SLα mRNA expression [1]: up to 8 fold increase

Compound: IGF-I: Human insulin-like growth factor I, purchased from Sigma
- TACR3 mRNA expression, time course [2]: significantly stimulate TACR3 mRNA expression
- TACR3 mRNA expression, dose-dependence [2]: trigger TACR3 mRNA expression in a concentration-related fashion
- enhancement of the stimulatory effects of TAC3 gene products on SLα mRNA expression [1]: up to 8 fold increase
- SLα mRNA levels, treatment alone, time course ([1]; NKBRPa 1 µM, IGF-I 100 nM (Figure 4A)): induce SLα mRNA levels
- NKBRPa-induced SLα transcript level enhanced by IGF-I cotreatment ([1]; NKBRPa (1 µM) + IGF-I (100 nM), especially after 12–24 h): up to 10 folds basal

Compound: COC(=O)C1=C(C)NC(C)=C([N+](=O)[O-])C1c1ccccc1C(F)(F)F (stereo not drawn) [BayK8644]
- SLα mRNA levels, activator alone [1]: effective in elevating SLα mRNA levels

Compound: GR64349: TACR2-specific agonist (NK2R agonist, Tocris)
- IC50 [3]: > 10 µM

Compound: O=S(=O)(NCCNC/C=C/c1ccc(Br)cc1)c1cccc2cnccc12 [H89]
- effect on SLα mRNA expression induced by IGF-I or senktide treatment alone [1]: attenuated
- effect on the synergistic effect on SLα mRNA expression caused by IGF-I and senktide cotreatment [1]: notably suppressed

Compound: C=C[C@@]1(C)CC(=O)[C@]2(O)[C@@]3(C)[C@@H](O)CCC(C)(C)[C@@H]3[C@H](O)[C@H](OC(C)=O)[C@@]2(C)O1 [forskolin]
- SLα mRNA levels, activator alone [1]: effective in elevating SLα mRNA levels

Compound: CC[C@H](NC(=O)c1c(C)c(-c2ccccc2)nc2ccccc12)c1ccccc1 [SB222200]
- effect on the potentiating effect induced by IGF-I + NKBRPa on SLα transcript expression ([1]; antagonist 10 µM, IGF-I (100 nM) + NKBRPa (1 µM) (Figure 4F)): markedly reduced
- effect on IGF-I- or NKBRPa-induced SLα transcript expression ([1]; antagonist 10 µM, NKBRPa 1 µM, IGF-I 100 nM (Figure 4F)): suppress

Compound: Cl.c1ccc(C2CCCC2NC2=NCCCCCCCCCCC2)cc1 (stereo not drawn) [MDL12330A]
- effect on SLα mRNA expression induced by IGF-I or senktide treatment alone [1]: attenuated
- effect on the synergistic effect on SLα mRNA expression caused by IGF-I and senktide cotreatment [1]: notably suppressed

Compound: O=P(O)(O)C(O)c1ccc2ccccc2c1 (stereo not drawn) [HNMPA]
- effect on IGF-I-induced TACR3 mRNA expression [2]: not effective
